Experimental data published in paper PMC10762035, “Molecular basis of human trace amine-associated receptor 1 activation” (Nature Communications, 2024).
Numbering of substitutions follows the chain as printed. Values joined by “and” are separate entries in the source; they are usually repeats but may differ in a detail not shown here. Identical values can stand only once. Like-named read-outs stand apart in the source and are kept apart here.

Key:
Format in all cases: cell-based
hTA1 V184P = target: T1, hTA1 V184P (Homo sapiens, UniProt Q96RJ0, V184P); assay: GloSensor cAMP accumulation assay, V184P mutant; details: for cAMP accumulation response, single replicate values (source data, Supplementary Figure 5): hTA1 V184P (N=2), log[Compound]
T1 construct: expressed in transfected cells; host or cells: HEK293T
T1 sequence (Q96RJ0 1-339 V184P): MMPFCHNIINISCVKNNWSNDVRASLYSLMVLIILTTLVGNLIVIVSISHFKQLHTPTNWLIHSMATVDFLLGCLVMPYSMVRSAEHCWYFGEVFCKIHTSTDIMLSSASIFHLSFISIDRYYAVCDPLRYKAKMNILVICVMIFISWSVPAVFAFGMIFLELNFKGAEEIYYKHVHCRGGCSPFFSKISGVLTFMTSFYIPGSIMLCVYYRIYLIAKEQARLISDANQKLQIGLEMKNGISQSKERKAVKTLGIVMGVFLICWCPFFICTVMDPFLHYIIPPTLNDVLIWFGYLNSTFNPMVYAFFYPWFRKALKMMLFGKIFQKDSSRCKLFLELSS

hTA1 W264F = target: T2, hTA1 W264F (Homo sapiens, UniProt Q96RJ0, W264F); assay: GloSensor cAMP accumulation assay, W264F mutant;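 further: cells transiently transfected with receptor plus GloSensor, luminescence read 30 min after agonist addition at room temperature, concentration-response curves fitted by log(agonist) vs response regression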
T2 construct: expressed in transfected cells; host or cells: HEK293T
T2 sequence (Q96RJ0 1-339 W264F): T1 sequence (Q96RJ0 1-339 V184P) with P184V, W264F

hTA1 C88/178S = target: T3, hTA1 C88/178S (Homo sapiens, UniProt Q96RJ0, C178S/C88S); assay: GloSensor cAMP accumulation assay, C88S/C178S double mutant; details: for Normalized Luminescence Counts (N=2): log[Compound], single replicate values
T3 construct: expressed in transfected cells; host or cells: HEK293T
T3 sequence (Q96RJ0 1-339 C88S/C178S): T1 sequence (Q96RJ0 1-339 V184P) with C88S, C178S, P184V

hTA1 T271N = target: T4, hTA1 T271N (Homo sapiens, UniProt Q96RJ0, T271N); assay: GloSensor cAMP accumulation assay, T271N mutant; details: for Emax: T271N
T4 construct: expressed in transfected cells; host or cells: HEK293T
T4 sequence (Q96RJ0 1-339 T271N): T1 sequence (Q96RJ0 1-339 V184P) with P184V, T271N

[1] = hTA1 V184P mutant minus WT average
[2] = C88S, C178S, each row is one independent experiment, 3 replicates

CCc1[nH]nc(C(=O)Nc2ccc([C@H]3CNCCO3)cc2)c1C [ralmitaront]
reduction in potency vs wild type (hTA1 V184P; V184P): 2.5 fold | Emax (hTA1 V184P; V184P, n=2, read-out: Span ± SEM (Emax normalized to β-PEA)): 48.73 ± 0.14% | cAMP accumulation response, single replicate values (source data, Supplementary Figure 5) (hTA1 V184P; M = -5): 56.1002 and 44.9467 and 51.6388 and 50.9599 and 51.6929 and 37.8383 | cAMP accumulation response, single replicate values (source data, Supplementary Figure 5) (hTA1 V184P; M = -5.522): 38.6425 and 44.6557 and 34.0841 and 47.4046 and 55.1382 and 34.8694 | cAMP accumulation response, single replicate values (source data, Supplementary Figure 5) (hTA1 V184P; M = -6): 32.8233 and 40.4853 and 30.6896 and 36.9953 and 42.3832 and 37.3618 | cAMP accumulation response, single replicate values (source data, Supplementary Figure 5) (hTA1 V184P; M = -6.522): 24.4824 and 25.4523 and 22.4457 and 22.8108 and 28.9684 and 21.7112 | cAMP accumulation response, single replicate values (source data, Supplementary Figure 5) (hTA1 V184P; M = -7): 14.7837 and 10.7102 and 14.2987 and 13.3178 and 19.622 and 12.4015 | cAMP accumulation response, single replicate values (source data, Supplementary Figure 5) (hTA1 V184P; M = -7.522): 3.727 and 4.406 and 3.242 and 4.485 and 6.5 and 5.731 | cAMP accumulation response, single replicate values (source data, Supplementary Figure 5) (hTA1 V184P; M = -8): 0.5265 and 1.302 and 1.5934 and 2.432 and 2.322 and 1.296 | cAMP accumulation response, single replicate values (source data, Supplementary Figure 5) (hTA1 V184P; M = -8.522): 0.2356 and -0.3463 and -0.05538 and 1.699 and 1.076 and 0.2329 | cAMP accumulation response, single replicate values (source data, Supplementary Figure 5) (hTA1 V184P; M = -9): 0.3326 and -0.2494 and -1.025 and -0.1703 and -0.2803 and -0.5368 | cAMP accumulation response, single replicate values (source data, Supplementary Figure 5) (hTA1 V184P; M = -9.522): -0.8313 and -0.9283 and -1.316 and -0.5002 and -0.3902 and -0.3169 | cAMP accumulation response, single replicate values (source data, Supplementary Figure 5) (hTA1 V184P; M = -10): -1.122 (2×) and -0.3463 and -0.94 and -0.3902 and -1.3432 | cAMP accumulation response, single replicate values (source data, Supplementary Figure 5) (hTA1 V184P; M = -10.522): -0.9283 and -1.025 and -1.219 and -0.9034 and -1.123 and -1.673 | cAMP accumulation response, single replicate values (source data, Supplementary Figure 5) (hTA1 V184P; M = -11): -0.9283 and -1.607 (2×) and -0.3902 (2×) and -0.1703 | cAMP accumulation response, single replicate values (source data, Supplementary Figure 5) (hTA1 V184P; M = -11.522): -1.607 (2×) and -1.898 and 0.746 and -0.02371 and -0.5002 | cAMP accumulation response, single replicate values (source data, Supplementary Figure 5) (hTA1 V184P; M = -12): -1.607 and -1.219 and -1.51 and -0.6835 and 0.4894 and -0.5735 | cAMP accumulation response, single replicate values (source data, Supplementary Figure 5) (hTA1 V184P; M = -12.522): -0.7343 and -1.4132 and -1.025 and -0.6835 and -0.7568 and -1.087 | ΔEmax values (each mutant value - WT average), Mean (hTA1 V184P; [1]): 8.48 and 8.751 | ΔpEC50 values (each mutant value - WT average), Mean (hTA1 V184P; [1]): -0.4311 and -0.3552 | Emax values, Mean (hTA1 V184P; hTA1 V184P mutant, β-PEA set to 100, each grid row a separate experiment, 3 replicates): 48.8655 | Emax (hTA1 V184P; hTA1 V184P mutant, β-PEA set to 100, each grid row a separate experiment, 3 replicates, read-out: Emax values (Mean)): 48.6% | ΔEmax values (each mutant value - WT average) (hTA1 W264F; W246F mutant (so in the source) minus WT average): -7.264 | Emax values, Mean (hTA1 W264F; W246F mutant (so in the source), β-PEA = 100, each line an independent experiment, 3 replicates): 47.4013 | Emax (hTA1 W264F; W246F mutant (so in the source), β-PEA = 100, each line an independent experiment, 3 replicates, read-out: Emax values (Mean)): 32.8% | Emax (hTA1 W264F; W264F, n=2, read-out: Span ± SEM (Emax normalized to β-PEA)): 40.1 ± 7.28% | ΔEmax values (each mutant value - WT average), Mean (hTA1 C88/178S; [2]): 18.4827 and 32.9242 | ΔpEC50 values (each mutant value - WT average), Mean (hTA1 C88/178S; [2]): -0.118 and 0.09825 | Normalized Luminescence Counts (N=2) (hTA1 C88/178S; C88S, C178S, M = -5): 55.2389 and 58.8007 and 61.0622 and 66.9199 and 93.0497 and 63.144 | Normalized Luminescence Counts (N=2) (hTA1 C88/178S; C88S, C178S, M = -5.522): 59.988 and 60.3272 and 50.3202 and 55.743 and 72.6594 and 83.3832 | Normalized Luminescence Counts (N=2) (hTA1 C88/178S; C88S, C178S, M = -6): 50.4332 and 47.6629 and 57.5569 and 67.8262 and 71.7532 and 58.9149 | Normalized Luminescence Counts (N=2) (hTA1 C88/178S; C88S, C178S, M = -6.522): 36.7513 and 35.5075 and 46.8149 and 59.519 and 56.6493 and 50.3056 | Normalized Luminescence Counts (N=2) (hTA1 C88/178S; C88S, C178S, M = -7): 22.2779 and 25.1613 and 25.3874 and 33.9934 and 41.0922 and 21.3061 | Normalized Luminescence Counts (N=2) (hTA1 C88/178S; C88S, C178S, M = -7.522): 14.9281 and 10.2921 and 11.3663 and 21.004 and 25.2331 and 32.0299 | Normalized Luminescence Counts (N=2) (hTA1 C88/178S; C88S, C178S, M = -8): 4.13 and 3.564 and 4.525 and 7.562 and 10.4313 and 11.0354 | Normalized Luminescence Counts (N=2) (hTA1 C88/178S; C88S, C178S, M = -8.522): 1.1331 and 2.8292 and 0.7939 and 5.598 and 0.6137 and 2.8793 | Normalized Luminescence Counts (N=2) (hTA1 C88/178S; C88S, C178S, M = -9): 0.3981 and 0.4547 and 0.9635 and -0.2925 and -0.1415 and 0.7648 | Normalized Luminescence Counts (N=2) (hTA1 C88/178S; C88S, C178S, M = -9.522): -0.2803 and 1.19 and 0.172 and -1.501 and -1.35 and -2.105 | Normalized Luminescence Counts (N=2) (hTA1 C88/178S; C88S, C178S, M = -10): 0.0589 and 1.359 and 0.002362 and -0.8967 and -0.2925 and -1.35 | Normalized Luminescence Counts (N=2) (hTA1 C88/178S; C88S, C178S, M = -10.522): 1.077 and 0.1154 and 0.002362 and -1.501 and -1.199 and -1.048 | Normalized Luminescence Counts (N=2) (hTA1 C88/178S; C88S, C178S, M = -11): -0.2238 and 0.172 and 0.7373 and -1.35 and -0.1415 and -1.048 | Normalized Luminescence Counts (N=2) (hTA1 C88/178S; C88S, C178S, M = -11.522): 0.0589 and 0.7373 and 0.5112 and -2.105 and 0.7648 and -0.8967 | Normalized Luminescence Counts (N=2) (hTA1 C88/178S; C88S, C178S, M = -12): 0.5112 and 0.7939 and 5.317 and -0.4436 and -0.5946 and -1.048 | Normalized Luminescence Counts (N=2) (hTA1 C88/178S; C88S, C178S, M = -12.522): 0.7373 (2×) and 1.416 and -1.199 and -0.7456 and -2.105 | Emax values, Mean (hTA1 C88/178S; C88S, C178S, normalized (β-PEA = 100), each row is one independent experiment, 3 replicates): 58.5968 and 73.0383 | Emax (hTA1 C88/178S; read-out: Span ± SEM (Emax normalized to β-PEA)): 65.8 ± 7.22% | ΔpEC50 values (each mutant value - WT average), Mean (hTA1 T271N; T271N mutant minus WT average, Figure 5B): 0.04727 and -0.1115 | Emax values, Mean (hTA1 T271N; T271N mutant, Figure 5B, β-PEA = 100, each row one independent experiment (3 replicates)): 121.192 and 53.6921 | Emax (hTA1 T271N; n=2, read-out: Span ± SEM (Emax normalized to β-PEA)): 87.4 ± 33.8% | Emax (hTA1 T271N; relative to β-PEA, read-out: Emax): 87.4%
